{"source": "patent US12662475B2", "about": "“Difluorocyclohexyl derivatives as IL-17 modulators” (UCB BIOPHARMA SRL, priority 2020, dated 2026)", "key": {"[1]": {"biological_target": "T1, interaction between IL-17A and soluble IL-17 Receptor A (IL-17RA) (Homo sapiens, UniProt Q16552)", "T1 construct": "made in house; host or cells: IL-17A-Fc: CHO SXE cells; IL-17RA: Expi HEK293 cells", "T1 sequence (Q16552 24-155)": "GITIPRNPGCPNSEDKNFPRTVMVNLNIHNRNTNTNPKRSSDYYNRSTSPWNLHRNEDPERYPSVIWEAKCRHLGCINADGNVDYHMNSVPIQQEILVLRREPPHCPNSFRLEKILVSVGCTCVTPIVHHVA", "test": "IL-17 FRET assay", "conditions": "IL-17A binding to IL-17RA", "method": "The purpose of this assay is to test the ability of compounds to disrupt the interaction between IL-17A and soluble IL-17 Receptor A (IL-17RA). The ability of a compound to inhibit IL-17A binding to IL-17RA is measured in this assay.\nAn IL-17AA-TEV-Human Fc construct was expressed in a CHO SXE cell system and purified by protein A chromatography and size exclusion. The protein was labelled with an amine reactive AlexaFluor 647 dye (Thermo Fisher #A20006), as per manufacturer's instruction.\nSoluble IL-17RA (33-317)-HKH-TEV-Fc was expressed in an Expi HEK293 cell system and purified by protein A chromatography and size exclusion. The Fc tag was cleaved by TEV, producing IL-17RA (33-317)-HKH, and the protein was labelled with amine reactive terbium (Thermo Fisher #PV3581).\nIn assay buffer [Dulbecco's PBS (Sigma #14190-094), 0.05% P20 (Thermo Scientific #28320), 1 mg/mL BSA (Sigma #A2153-500G)] the following solutions were prepared:\n• IL-17A-Fc-AF647 at 5 nM • IL-17RA-HKH-Tb at 5 nM\nCompounds were serially diluted in DMSO before receiving an aqueous dilution into a 384 well dilution plate (Greiner #781281), to give a 25% DMSO solution.\nIL-17A (10 μL) was added to a black low volume assay plate (Costar #4511) and diluted compound (5 μL) was transferred from the aqueous dilution plate. The cytokine and compound were allowed to incubate for 1 h, then IL-17RA (10 μL) was added. The plates were wrapped in foil and incubated at room temperature for 18-20 h with gentle shaking (<400 rpm) before being read on a Perkin Elmer Envision plate reader (Excitation: 330 nm; Emission 615/645 nm).\nThe final assay concentrations were IL-17A-AF647 2 nM and IL-17RA-Tb 2 nM, 5% DMSO."}, "[2]": {"system": "IL-17 induced IL-6 release from human dermal fibroblasts", "test": "Inhibition of IL-17A induced IL-6 release from dermal fibroblast cell line (HDF cell line assay)", "format": "cell-based", "method": "Inhibition of IL-17A Induced IL-6 Release from Dermal Fibroblast Cell Line\nThe purpose of this assay is to test the neutralising ability to IL-17 proteins, in a human primary cell system.\nThe resultant IL-6 response was then measured using a homogenous time-resolved FRET kit from Cisbio. The kit utilises two monoclonal antibodies, one labelled with Eu-Cryptate (Donor) and the second with d2 or XL665 (Acceptor).\nThe ability of a compound to inhibit IL-17 induced IL-6 release from human dermal fibroblasts is measured in this assay.\nThe TrypLE was neutralised using complete medium (45 mL) and the cells were centrifuged at 300×g for 3 minutes. […] The cells were left for a minimum of three hours, at 37° C./5% CO2, to adhere to the plate.\n10 μL from the aqueous dilution plate was transferred to the reagent plate containing 30 μL of the diluted cytokines, to give a 2.5% DMSO solution. The compounds were incubated with the cytokine mixtures for 1 h or 5 h at 37° C. After the incubation, 10 μL was transferred to the assay plate, to give a […] solution, then incubated for 18-20 h at 37° C./5% CO2."}}}
{"compound": "Cc1nonc1C(=O)N[C@H](c1nc2c(F)c(C(CC(F)F)C(=O)N3CC(F)(F)C3)ccc2[nH]1)C1CCC(F)(F)CC1", "note": "(mixture of isomers) [Example 3, N—[(S)-{5-[1-(3,3-Difluoroazetidine-1-carbonyl)-3,3-difluoropropyl]-4-fluoro-1H-benzimidazol-2-yl}(4,4-difluorocyclohexyl)methyl]-4-methyl-1,2,5-oxadiazole-3-carboxamide]", "values": [{"measurement": "IC50", "setting": "[1]", "result": 25.1, "unit": "nM"}, {"measurement": "IC50", "setting": "[2]; Incubation Time 5 h", "result": 25.1, "unit": "nM"}]}
{"compound": "CC(C(=O)N1CC(F)(F)C1)c1ccc2[nH]c([C@@H](NC(=O)c3ccnn3C)C3CCC(F)(F)CC3)nc2c1F", "note": "(mixture of isomers) [Example 20, N—[(S)-{5-[2-(3,3-Difluoroazetidin-1-yl)-1-methyl-2-oxoethyl]-4-fluoro-1H-benzimidazol-2-yl}(4,4-difluorocyclohexyl)methyl]-2-methylpyrazole-3-carboxamide]", "values": [{"measurement": "IC50", "setting": "[1]", "result": 100, "unit": "nM"}, {"measurement": "IC50", "setting": "[2]; Incubation Time 5 h", "result": 20, "unit": "nM"}]}
{"compound": "COC(=O)N1CC[C@](C(=O)N2CC(F)(F)C(F)(F)C2)(c2ccc3[nH]c([C@@H](NC(=O)c4nonc4C)C4CCC(F)(F)CC4)nc3c2F)C1", "note": "(single isomer, unassigned) [Example 1]", "values": [{"measurement": "IC50", "setting": "[1]", "result": 39.8, "unit": "nM"}, {"measurement": "IC50", "setting": "[2]; Incubation Time 5 h", "result": 6.31, "unit": "nM"}]}
{"compound": "COC(=O)N1CC[C@@](C(=O)N2CC(F)(F)C(F)(F)C2)(c2ccc3[nH]c([C@@H](NC(=O)c4nonc4C)C4CCC(F)(F)CC4)nc3c2F)C1", "note": "(single isomer, unassigned) [Example 2]", "values": [{"measurement": "IC50", "setting": "[1]", "result": 39.8, "unit": "nM"}, {"measurement": "IC50", "setting": "[2]; Incubation Time 5 h", "result": 10, "unit": "nM"}]}
{"compound": "Cc1nonc1C(=O)N[C@H](c1nc2c(F)c([C@H](CC(F)F)C(=O)N3CC(F)(F)C3)ccc2[nH]1)C1CCC(F)(F)CC1", "note": "(single isomer, unassigned) [Example 4]", "values": [{"measurement": "IC50", "setting": "[1]", "result": 39.8, "unit": "nM"}, {"measurement": "IC50", "setting": "[2]; Incubation Time 5 h", "result": 15.8, "unit": "nM"}]}
{"compound": "Cc1nonc1C(=O)N[C@H](c1nc2c(F)c([C@@H](CC(F)F)C(=O)N3CC(F)(F)C3)ccc2[nH]1)C1CCC(F)(F)CC1", "note": "(single isomer, unassigned) [Example 5]", "values": [{"measurement": "IC50", "setting": "[1]", "result": 1580, "unit": "nM"}, {"measurement": "IC50", "setting": "[2]; Incubation Time 1 h", "result": 1260, "unit": "nM"}]}
{"compound": "C[C@H](C(=O)N1CC(F)(F)C1)c1ccc2[nH]c([C@@H](NC(=O)c3ccnn3C)C3CCC(F)(F)CC3)nc2c1F", "note": "(single isomer, unassigned) [Example 21]", "values": [{"measurement": "IC50", "setting": "[1]", "result": 25.1, "unit": "nM"}, {"measurement": "IC50", "setting": "[2]; Incubation Time 5 h", "result": 15.8, "unit": "nM"}]}
{"compound": "C[C@@H](C(=O)N1CC(F)(F)C1)c1ccc2[nH]c([C@@H](NC(=O)c3ccnn3C)C3CCC(F)(F)CC3)nc2c1F", "note": "(single isomer, unassigned) [Example 22]", "values": [{"measurement": "IC50", "setting": "[1]", "result": 316, "unit": "nM"}, {"measurement": "IC50", "setting": "[2]; Incubation Time 5 h", "result": 316, "unit": "nM"}]}
{"compound": "Cn1nccc1C(=O)N[C@H](c1nc2c(F)c(C(CC(F)F)C(=O)N3CC(F)(F)C3)ccc2[nH]1)C1CCC(F)(F)CC1", "note": "(stereo partly drawn) [Example 6, N—[(S)-{5-[1-(3,3-Difluoroazetidine-1-carbonyl)-3,3-difluoropropyl]-4-fluoro-1H-benzimidazol-2-yl}(4,4-difluorocyclohexyl)methyl]-2-methylpyrazole-3-carboxamide]", "values": [{"measurement": "IC50", "setting": "[1]", "result": 79.4, "unit": "nM"}, {"measurement": "IC50", "setting": "[2]; Incubation Time 5 h", "result": 25.1, "unit": "nM"}]}
{"compound": "Cc1nonc1C(=O)N[C@H](c1nc2c(F)c(C(CC(F)(F)F)C(=O)N3CC(F)(F)C3)ccc2[nH]1)C1CCC(F)(F)CC1", "note": "(stereo partly drawn) [Example 7, N—[(S)-{5-[1-(3,3-Difluoroazetidine-1-carbonyl)-3,3,3-trifluoropropyl]-4-fluoro-1H-benzimidazol-2-yl}(4,4-difluorocyclohexyl)methyl]-4-methyl-1,2,5-oxadiazole-3-carboxamide]", "values": [{"measurement": "IC50", "setting": "[1]", "result": 15.8, "unit": "nM"}, {"measurement": "IC50", "setting": "[2]; Incubation Time 5 h", "result": 15.8, "unit": "nM"}]}
{"compound": "Cn1nccc1C(=O)N[C@H](c1nc2c(F)c(C(CC(F)(F)F)C(=O)N3CC(F)(F)C3)ccc2[nH]1)C1CCC(F)(F)CC1", "note": "(stereo partly drawn) [Example 8, N—[(S)-{5-[1-(3,3-Difluoroazetidine-1-carbonyl)-3,3,3-trifluoropropyl]-4-fluoro-1H-benzimidazol-2-yl}(4,4-difluorocyclohexyl)methyl]-2-methylpyrazole-3-carboxamide]", "values": [{"measurement": "IC50", "setting": "[1]", "result": 100, "unit": "nM"}, {"measurement": "IC50", "setting": "[2]; Incubation Time 5 h", "result": 25.1, "unit": "nM"}]}
{"compound": "Cc1nonc1C(=O)N[C@H](c1nc2c(F)c(C3(C(=O)N4CC(F)(F)C4)CCNCC3)ccc2[nH]1)C1CCC(F)(F)CC1", "note": "[Example 16, N—[(S)-{5-[4-(3,3-Difluoroazetidine-1-carbonyl)piperidin-4-yl]-4-fluoro-1H-benzimidazol-2-yl}(4,4-difluorocyclohexyl)methyl]-4-methyl-1,2,5-oxadiazole-3-carboxamide]", "values": [{"measurement": "IC50", "setting": "[1]", "result": 126, "unit": "nM"}, {"measurement": "IC50", "setting": "[2]; Incubation Time 5 h", "result": 79.4, "unit": "nM"}]}
{"compound": "COC(=O)N1CCC(C(=O)N2CC(F)(F)C2)(c2ccc3[nH]c([C@@H](NC(=O)c4nonc4C)C4CCC(F)(F)CC4)nc3c2F)CC1", "note": "[Example 17, Methyl 4-(3,3-difluoroazetidine-1-carbonyl)-4-(2-{(S)-(4,4-difluorocyclohexyl)[(4-methyl-1,2,5-oxadiazole-3-carbonyl)amino]methyl}-4-fluoro-1H-benzimidazol-5-yl)-piperidine-1-carboxylate]", "values": [{"measurement": "IC50", "setting": "[1]", "result": 50.1, "unit": "nM"}, {"measurement": "IC50", "setting": "[2]; Incubation Time 5 h", "result": 12.6, "unit": "nM"}]}
{"compound": "[2H]C([2H])([2H])n1nccc1C(=O)N[C@H](c1nc2c(F)c(C3(C(=O)N4CC(F)(F)C4)CC(F)(F)C3)ccc2[nH]1)C1CCC(F)(F)CC1", "note": "[Example 18, N—[(S)-{5-[1-(3,3-Difluoroazetidine-1-carbonyl)-3,3-difluorocyclobutyl]-4-fluoro-1H-benzimidazol-2-yl}(4,4-difluorocyclohexyl)methyl]-2-(trideuteriomethyl)pyrazole-3-carboxamide]", "values": [{"measurement": "IC50", "setting": "[1]", "result": 158, "unit": "nM"}, {"measurement": "IC50", "setting": "[2]; Incubation Time 1 h", "result": 79.4, "unit": "nM"}]}
{"compound": "Cc1nonc1C(=O)N[C@H](c1nc2c(F)c(C3(C(=O)N4CC(F)(F)C(F)(F)C4)CCOCC3)ccc2[nH]1)C1CCC(F)(F)CC1", "note": "[Example 19, N—[(S)-(4,4-Difluorocyclohexyl){4-fluoro-5-[4-(3,3,4,4-tetrafluoropyrrolidine-1-carbonyl)tetrahydropyran-4-yl]-1H-benzimidazol-2-yl}methyl]-4-methyl-1,2,5-oxadiazole-3-carboxamide]", "values": [{"measurement": "IC50", "setting": "[1]", "result": 12.6, "unit": "nM"}, {"measurement": "IC50", "setting": "[2]; Incubation Time 5 h", "result": 3.98, "unit": "nM"}]}
{"compound": "Cc1nonc1C(=O)N[C@H](c1nc2c(F)c(C3(C(=O)N4CC(F)(F)C4)CCC(F)(F)CC3)ccc2[nH]1)C1CCC(F)(F)CC1", "note": "[Example 23, N—[(S)-{5-[1-(3,3-Difluoroazetidine-1-carbonyl)-4,4-difluorocyclohexyl]-4-fluoro-1H-benzimidazol-2-yl}(4,4-difluorocyclohexyl)methyl]-4-methyl-1,2,5-oxadiazole-3-carboxamide]", "values": [{"measurement": "IC50", "setting": "[1]", "result": 20, "unit": "nM"}, {"measurement": "IC50", "setting": "[2]; Incubation Time 5 h", "result": 10, "unit": "nM"}]}
{"compound": "Cc1nonc1C(=O)N[C@H](c1nc2nc(C3(C(=O)NCC4CC4(F)F)CCOCC3)ccc2[nH]1)C1CCC(F)(F)CC1", "note": "(stereo partly drawn) [Example 24, N—[(S)-(4,4-Difluorocyclohexyl)(5-{4-[(2,2-difluorocyclopropyl)methylcarbamoyl]-tetrahydropyran-4-yl}-1H-imidazo[4,5-b]pyridin-2-yl)methyl]-4-methyl-1,2,5-oxadiazole-3-carboxamide]", "values": [{"measurement": "IC50", "setting": "[1]", "result": 25.1, "unit": "nM"}, {"measurement": "IC50", "setting": "[2]; Incubation Time 5 h", "result": 6.31, "unit": "nM"}]}
